From patent US20240083861A1, “HSD17B13 INHIBITORS AND USES THEREOF” (FL2022-001, Inc., priority 2020, published 2024)

Biological target: T1, Recombinant human HSD17B13 enzyme (Homo sapiens, UniProt Q7Z5P4)
T1 sequence (Q7Z5P4 20-300): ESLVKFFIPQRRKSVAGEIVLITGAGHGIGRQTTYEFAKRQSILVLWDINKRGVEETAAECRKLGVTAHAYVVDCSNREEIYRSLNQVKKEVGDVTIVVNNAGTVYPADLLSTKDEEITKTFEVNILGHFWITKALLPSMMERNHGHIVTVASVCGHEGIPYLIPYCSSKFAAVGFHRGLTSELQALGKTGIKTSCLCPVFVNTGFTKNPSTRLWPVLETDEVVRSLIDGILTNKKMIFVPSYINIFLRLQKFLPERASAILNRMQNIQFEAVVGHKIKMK
Experiment: HSD17b13 NAD(P)H-Glo biochemical assay
Conditions: 50 uM estradiol, 1 mM NAD+, NAD(P)H-Glo luminescence; read-out: HSD17β13 IC50
How it was run: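 Luminescent NAD(P)H-Glo read-out, taken after 1 hour at RT, measured cofactor reduction. Substrate and cofactor were estradiol at 50 uM and NAD+ at 1 mM final, reacted with the recombinant human enzyme for 3 hours at 37° C in 20 mM Tris pH7.4, 0.002% Tween-20, 0.02% BSA. Compound was pre-incubated with enzyme for 20 minutes at RT.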

SMILES | IC50
Cn1nc(-c2cc(C(F)(F)F)c(F)c(O)c2F)c2cnc(N3[C@@H]4CNC[C@H]3COC4)cc21 [Compound 9.100, 3-(6-(cis-3-Oxa-7,9-diazabicyclo[3.3.1]nonan-9-yl)-1-methyl-1H-pyrazolo[4,3-c]pyridin-3-yl)-2,6-difluoro-5-(trifluoromethyl)phenol] | 100 to 1000 nM
Cn1nc(-c2ccc(Cl)c(O)c2F)c2cnc(N3CCN(S(C)(=O)=O)C4(CC4)C3)nc21 [Compound 12.06, 6-Chloro-2-fluoro-3-(1-methyl-6-(4-(methylsulfonyl)-4,7-diazaspiro[2.5]octan-7-yl)-1H-pyrazolo[3,4-d]pyrimidin-3-yl)phenol] | 100 to 1000 nM
Cn1nc(-c2cc(C(F)(F)F)c(F)c(O)c2F)c2cnc(N3CCOCC3)cc21 [Compound 9.57, 2,6-Difluoro-3-(1-methyl-6-morpholino-1H-pyrazolo[4,3-c]pyridin-3-yl)-5-(trifluoromethyl)phenol] | < 100 nM
CS(=O)(=O)N1CCN(c2ccc3oc(-c4cc(O)c(F)c(C(F)(F)F)c4)nc3c2)CC1 [Compound 6, 2-Fluoro-5-(5-(4-(methylsulfonyl)piperazin-1-yl)benzo[d]oxazol-2-yl)-3-(trifluoromethyl)phenol] | < 100 nM
CC(C)n1nc(-c2cc(C(F)(F)F)c(F)c(O)c2F)c2cnc(N3CCOCC34CC4)cc21 [Compound 9.34, 2,6-Difluoro-3-(1-isopropyl-6-(7-oxa-4-azaspiro[2.5]octan-4-yl)-1H-pyrazolo[4,3-c]pyridin-3-yl)-5-(trifluoromethyl)phenol] | < 100 nM
O=C(NC12CC(C1)C2)c1cc2nc(-c3cc(O)c(F)c(C(F)(F)F)c3)oc2cn1 [Compound 1.24, N-(Bicyclo[1.1.1]pentan-1-yl)-2-(4-fluoro-3-hydroxy-5-(trifluoromethyl)phenyl)oxazolo[5,4-c]pyridine-6-carboxamide] | < 100 nM
COC1(C)CN(c2ncc3c(-c4cc(C(F)(F)F)c(F)c(O)c4F)nn(C)c3n2)C1 [Compound 9.13, 2,6-Difluoro-3-(6-(3-methoxy-3-methylazetidin-1-yl)-1-methyl-1H-pyrazolo[3,4-d]pyrimidin-3-yl)-5-(trifluoromethyl)phenol] | < 100 nM
COC1CCN(c2cc3c(cn2)c(-c2cc(C(F)(F)F)c(F)c(O)c2F)nn3C)CC1 [Compound 9.47, 2,6-Difluoro-3-(6-(4-methoxypiperidin-1-yl)-1-methyl-1H-pyrazolo[4,3-c]pyridin-3-yl)-5-(trifluoromethyl)phenol] | < 100 nM
Cn1nc(-c2cc(C(F)(F)F)c(F)c(O)c2F)c2cnc(NC3CCOCC3)cc21 [Compound 9.94, 2,6-Difluoro-3-(1-methyl-6-((tetrahydro-2H-pyran-4-yl)amino)-1H-pyrazolo[4,3-c]pyridin-3-yl)-5-(trifluoromethyl)phenol] | < 100 nM
Cn1nc(-c2cc(C(F)(F)F)c(F)c(O)c2F)c2cnc(N3CC4(CCOCC4)C3)nc21 [Compound 9.04, 2,6-Difluoro-3-(1-methyl-6-(7-oxa-2-azaspiro[3.5]nonan-2-yl)-1H-pyrazolo[3,4-d]pyrimidin-3-yl)-5-(trifluoromethyl)phenol] | < 100 nM
O=C(c1ccc2oc(-c3cc(C(F)(F)F)c(F)c(O)c3F)nc2c1)N1CCC1 [Compound 1.17, Azetidin-1-yl(2-(2,4-difluoro-3-hydroxy-5-(trifluoromethyl)phenyl)benzo[d]oxa-zol-5-yl)methanone] | 100 to 1000 nM
CN(c1ccc2c(-c3cc(C(F)(F)F)c(F)c(O)c3F)nn(C)c2n1)C1CCOCC1 [Compound 9.40, 2,6-Difluoro-3-(1-methyl-6-(methyl(tetrahydro-2H-pyran-4-yl)amino)-1H-pyrazolo[3,4-b]pyridin-3-yl)-5-(trifluoromethyl)phenol] | < 100 nM
CS(=O)(=O)N1CCN(c2ccc3nc(-c4cc(O)c(F)c(C(F)(F)F)c4)oc3c2)CC1 [Compound 6.02, 2-Fluoro-5-(6-(4-(methylsulfonyl)piperazin-1-yl)benzo[d]oxazol-2-yl)-3-(trifluoromethyl)phenol] | < 100 nM
CS(=O)(=O)NC1CN(C(=O)c2ccc3oc(-c4cc(O)c(F)c(F)c4)nc3c2)C1 [Compound 1.05, N-(1-(2-(3,4-Difluoro-5-hydroxyphenyl)benzo[d]oxazole-5-carbonyl)azetidin-3-yl)methanesulfonamide] | 100 to 1000 nM
Cn1nc(-c2cc(C(F)(F)F)c(F)c(O)c2F)c2ccc(N3CCN(S(C)(=O)=O)CC3)nc21 [Compound 12.02, 2,6-Difluoro-3-(1-methyl-6-(4-(methylsulfonyl)piperazin-1-yl)-1H-pyrazolo[3,4-b]pyridin-3-yl)-5-(trifluoromethyl)phenol] | < 100 nM
CN(CC1CC1)c1cc2c(cn1)c(-c1cc(C(F)(F)F)c(F)c(O)c1F)nn2C [Compound 9.11, 3-(6-((Cyclopropylmethyl) (methyl)amino)-1-methyl-1H-pyrazolo[4,3-c]pyridin-3-yl)-2,6-difluoro-5-(trifluoromethyl)phenol] | < 100 nM

Next, values leading:

IC50 | SMILES
100 to 1000 nM | Cn1nc(-c2cc(C(F)(F)F)c(F)c(O)c2F)c2cnc(N3CCOC(CO)C3)nc21 (centres unmarked) [Compound 18.02, 2,6-Difluoro-3-(6-(2-(hydroxymethyl)morpholino)-1-methyl-1H-pyrazolo[3,4-d]pyrimidin-3-y1)-5-(trifluoromethyl)phenol]
< 100 nM | Cn1nc(-c2cc(C(F)(F)F)c(F)c(O)c2F)c2cnc(N3CCC4(CC3)CC(=O)N4)nc21 [Compound 18.16, 7-(3-(2,4-Difluoro-3-hydroxy-5-(trifluoromethyl)phenyl)-1-methyl-1H-pyrazolo[3,4-d]pyrimidin-6-yl)-1,7-diazaspiro[3.5]nonan-2-one]
< 100 nM | Cn1nc(-c2cc(C(F)(F)F)c(F)c(O)c2F)c2cnc(N3CCN(S(C)(=O)=O)C4(CCCC4)C3)nc21 [Compound 18.83, 2,6-Difluoro-3-(1-methyl-6-(6-(methylsulfonyl)-6,9-diazaspiro[4.5]decan-9-yl)-1H-pyrazolo[3,4-d]pyrimidin-3-y1)-5-(trifluoromethyl)phenol]
100 to 1000 nM | Cn1nc(-c2cc(C(F)(F)F)cc(O)c2F)c2cnc(C3CCN(S(C)(=O)=O)CC3)cc21 [Compound 13.01, 2-Fluoro-3-(1-methyl-6-(1-(methylsulfonyl)piperidin-4-yl)-1H-pyrazolo[4,3-c]pyridin-3-yl)-5-(trifluoromethyl)phenol]
100 to 1000 nM | Cn1nc(-c2cc(C(F)(F)F)c(F)c(O)c2F)c2cnc(N3CCC(C(=O)O)CC3)nc21 [Compound 18.30, 1-(3-(2,4-Difluoro-3-hydroxy-5-(trifluoromethyl)phenyl)-1-methyl-1H-pyrazolo[3,4-d]pyrimidin-6-y1)piperidine-4-carboxylic Acid]
< 100 nM | Cn1nc(-c2cc(C(F)(F)F)c(F)c(O)c2F)c2cnc(N3CCOC(c4nccs4)C3)nc21 (centres unmarked) [Compound 18.80, 2,6-Difluoro-3-(1-methyl-6-(2-(thiazol-2-yl)morpholino)-1H-pyrazolo[3,4-d]pyrimidin-3-y1)-5-(trifluoromethyl)phenol]
< 100 nM | Cn1nc(-c2cc(C(F)(F)F)c(F)c(O)c2F)c2cnc(N3CCN(C(=O)NC4CCCCC4)CC3)nc21 [Compound 18.125, N-Cyclohexyl-4-(3-(2,4-difluoro-3-hydroxy-5-(trifluoromethyl)phenyl)-1-methyl-1H-pyrazolo[3,4-d]pyrimidin-6-y1)piperazine-1-carboxamide]
100 to 1000 nM | CNC1CCN(c2ncc3c(-c4cc(C(F)(F)F)c(F)c(O)c4F)nn(C)c3n2)CC1 [Compound 18.29, 2,6-Difluoro-3-(1-methyl-6-(4-(methylamino)piperidin-1-yl)-1H-pyrazolo[3,4-d]pyrimidin-3-y1)-5-(trifluoromethyl)phenol]
100 to 1000 nM | Cn1nc(-c2cc(C(F)(F)F)c(F)c(O)c2F)c2cnc(C3CCN(S(C)(=O)=O)CC3)cc21 [Compound 15.03, 2,6-Difluoro-3-(1-methyl-6-(1-(methylsulfony1)piperidin-4-y1)-1H-pyrazolo[4,3-c]pyridin-3-y1)-5-(trifluoromethyl)phenol]
< 100 nM | Cn1nc(-c2cc(C(F)(F)F)c(F)c(O)c2F)c2cnc(N(Cc3ccccc3)C3CC3)nc21 [Compound 18.117, 3-(6-(Benzyl(cyclopropyl)amino)-1-methyl-1H-pyrazolo[3,4-d]pyrimidin-3-y1)-2,6-difluoro-5-(trifluoromethyl)phenol]
< 100 nM | Cn1nc(-c2cc(C(F)(F)F)c(F)c(O)c2F)c2cnc(N3CCN(C(=O)C4CC4)CC3)nc21 [Compound 18.123, Cyclopropyl(4-(3-(2,4-difluoro-3-hydroxy-5-(trifluoromethyl)phenyl)-1-methyl-1H-pyrazolo[3,4-d]pyrimidin-6-y1)piperazin-1-yl)methanone]
< 100 nM | Cn1nc(-c2cc(C(F)(F)F)c(F)c(O)c2F)c2cnc(N3CCN(C(=O)C4CCCCC4)CC3)nc21 [Compound 18.115, Cyclohexyl(4-(3-(2,4-difluoro-3-hydroxy-5-(trifluoromethyl)phenyl)-1-methyl-1H-pyrazolo[3,4-d]pyrimidin-6-yl)piperazin-1-yl)methanone]
100 to 1000 nM | Cn1nc(-c2cc(C(F)(F)F)c(F)c(O)c2F)c2cnc(N3CCN(C(=O)c4ccncc4)CC3)nc21 [Compound 18.122, (4-(3-(2,4-Difluoro-3-hydroxy-5-(trifluoromethyl)phenyl)-1-methyl-1H-pyrazolo[3,4-d]pyrimidin-6-y1)piperazin-1-yl)(pyridin-4-yl)methanone]
